Holding throughout (test): tetrapeptide-ACC substrate cleavage kinetics
What all share (assay type): biochemical

Experiment [1] has as its target T1, human caspase-1 (Homo sapiens, UniProt P29466).
T1 sequence (P29466 120-297 limits assumed): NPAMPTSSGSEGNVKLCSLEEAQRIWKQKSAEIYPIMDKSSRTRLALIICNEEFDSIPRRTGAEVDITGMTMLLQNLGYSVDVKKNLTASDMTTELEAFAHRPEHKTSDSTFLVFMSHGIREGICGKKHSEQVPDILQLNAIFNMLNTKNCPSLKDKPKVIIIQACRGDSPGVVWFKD
T1 sequence (P29466 317-404 limits assumed): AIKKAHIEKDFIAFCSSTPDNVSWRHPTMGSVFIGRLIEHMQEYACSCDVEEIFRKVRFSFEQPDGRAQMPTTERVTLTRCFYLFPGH
The following applies: Ac-P4-P3-P2-Asp-ACC substrate, 0.05-500 μM, 2-15 nM enzyme, 37°C, triplicate.

The target in experiment [2] is T2, human caspase-4 (Homo sapiens, UniProt P49662).
T2 sequence (P49662 81-270 limits assumed): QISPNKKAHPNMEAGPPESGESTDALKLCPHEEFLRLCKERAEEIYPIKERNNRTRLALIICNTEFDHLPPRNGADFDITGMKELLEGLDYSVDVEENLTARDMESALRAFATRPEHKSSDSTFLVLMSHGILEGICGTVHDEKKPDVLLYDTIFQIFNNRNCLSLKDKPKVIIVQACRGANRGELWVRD
T2 sequence (P49662 290-377 limits assumed): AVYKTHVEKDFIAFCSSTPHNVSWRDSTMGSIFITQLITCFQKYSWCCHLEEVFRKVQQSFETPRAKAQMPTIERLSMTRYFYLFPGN
The following applies: Ac-P4-P3-P2-Asp-ACC substrate, 0.05-500 μM, 35-200 nM enzyme, 37°C, triplicate.

Experiment [3] concerns the target T3, human caspase-5 (Homo sapiens, UniProt P51878).
T3 sequence (P51878 137-327 limits assumed): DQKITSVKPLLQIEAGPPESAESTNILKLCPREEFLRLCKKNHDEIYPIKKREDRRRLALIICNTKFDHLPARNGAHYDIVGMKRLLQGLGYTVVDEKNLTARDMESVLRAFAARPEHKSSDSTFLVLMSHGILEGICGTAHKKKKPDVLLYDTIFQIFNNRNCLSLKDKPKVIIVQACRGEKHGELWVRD
T3 sequence (P51878 347-434 limits assumed): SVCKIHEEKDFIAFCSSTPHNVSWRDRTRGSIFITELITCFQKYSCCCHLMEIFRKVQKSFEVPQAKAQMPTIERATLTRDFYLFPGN
The following applies: Ac-P4-P3-P2-Asp-ACC substrate, 0.05-500 μM, 20-250 nM enzyme, 37°C, triplicate.

The target in experiment [4] is T4, human caspase-3 (Homo sapiens, UniProt P42574).
T4 sequence (P42574 29-175 limits assumed): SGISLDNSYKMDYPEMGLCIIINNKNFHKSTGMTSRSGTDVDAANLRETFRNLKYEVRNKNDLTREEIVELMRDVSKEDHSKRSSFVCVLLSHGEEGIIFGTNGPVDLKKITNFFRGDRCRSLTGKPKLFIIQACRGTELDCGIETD
T4 sequence (P42574 176-277 limits assumed): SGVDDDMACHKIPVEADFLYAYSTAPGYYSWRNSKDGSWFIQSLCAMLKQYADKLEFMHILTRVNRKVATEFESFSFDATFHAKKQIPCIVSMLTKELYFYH
The following applies: Ac-P4-P3-P2-Asp-ACC substrate, 0.05-500 μM, 3-35 nM enzyme, 37°C, triplicate.

The target of experiment [5] is T5, human caspase-7 (Homo sapiens, UniProt P55210).
T5 sequence (P55210 24-198 limits assumed): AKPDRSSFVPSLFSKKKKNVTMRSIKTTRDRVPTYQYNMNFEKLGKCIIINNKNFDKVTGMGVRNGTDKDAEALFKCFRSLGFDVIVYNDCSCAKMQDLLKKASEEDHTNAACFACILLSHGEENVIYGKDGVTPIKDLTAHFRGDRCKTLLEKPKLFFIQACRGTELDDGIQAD
T5 sequence (P55210 207-303 limits assumed): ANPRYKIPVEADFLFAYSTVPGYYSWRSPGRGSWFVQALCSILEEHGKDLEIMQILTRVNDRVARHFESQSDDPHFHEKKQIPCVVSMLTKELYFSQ
To be noted: Ac-P4-P3-P2-Asp-ACC substrate, 0.05-500 μM, 40-400 nM enzyme, 37°C, triplicate.

Experiment [6] deals with human caspase-8 (Homo sapiens, UniProt Q14790). The following applies: Ac-P4-P3-P2-Asp-ACC substrate, 0.05-500 μM, 6-42 nM enzyme, 37°C, triplicate.
Chain of human caspase-8 (Q14790 217-374 limits assumed): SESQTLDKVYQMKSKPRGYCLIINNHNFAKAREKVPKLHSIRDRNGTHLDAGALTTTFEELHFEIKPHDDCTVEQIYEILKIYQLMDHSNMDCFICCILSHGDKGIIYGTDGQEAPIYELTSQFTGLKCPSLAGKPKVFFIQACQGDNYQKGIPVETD
Chain of human caspase-8 (Q14790 385-479 limits assumed): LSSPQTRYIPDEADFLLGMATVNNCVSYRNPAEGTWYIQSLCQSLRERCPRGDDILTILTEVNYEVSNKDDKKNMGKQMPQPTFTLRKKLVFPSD
In experiment [7] the target is T6, human caspase-9 (Homo sapiens, UniProt P55211).
T6 sequence (P55211 1-315 limits assumed): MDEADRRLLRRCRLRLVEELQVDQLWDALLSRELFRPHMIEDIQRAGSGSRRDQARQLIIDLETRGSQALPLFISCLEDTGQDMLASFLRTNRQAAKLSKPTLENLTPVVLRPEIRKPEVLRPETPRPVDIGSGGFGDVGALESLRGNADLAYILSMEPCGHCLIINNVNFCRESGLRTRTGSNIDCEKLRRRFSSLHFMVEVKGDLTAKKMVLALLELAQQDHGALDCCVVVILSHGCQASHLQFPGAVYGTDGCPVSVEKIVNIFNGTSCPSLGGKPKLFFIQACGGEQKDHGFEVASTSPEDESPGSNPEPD
T6 sequence (P55211 331-416 limits assumed): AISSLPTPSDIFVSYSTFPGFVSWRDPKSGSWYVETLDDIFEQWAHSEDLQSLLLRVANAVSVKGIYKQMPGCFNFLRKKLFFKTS
The following applies: Ac-P4-P3-P2-Asp-ACC substrate, 0.05-500 μM, 20-150 nM enzyme, 37°C, triplicate.

Where “and” joins values, the source holds several entries; their conditions need not be identical. Identical values can stand only once. Non-standard residues stand in square brackets, D forms with d. No end group written: not given here. Bip = N[C@@H](Cc1ccc(-c2ccccc2)cc1)C(=O)O; Phe(4-Cl) = N[C@@H](Cc1ccc(Cl)cc1)C(=O)O; Phe(2-Cl) = N[C@@H](Cc1ccccc1Cl)C(=O)O; 2Nal = N[C@@H](Cc1ccc2ccccc2c1)C(=O)O; Tic = O=C(O)[C@@H]1Cc2ccccc2CN1; Cha = N[C@@H](CC1CCCCC1)C(=O)O; Phg = N[C@H](C(=O)O)c1ccccc1; Tle = CC(C)(C)[C@H](N)C(=O)O

As to [2Nal]THD, the “kcat/KM caspase-1” value in experiment [1] is reported as 146 200 M^-1s^-1. Moreover, in experiment [2], the “kcat/KM caspase-4” value is reported as 2 450 M^-1s^-1. The “kcat/KM caspase-5” value in experiment [3] is reported as 7 860 M^-1s^-1. In experiment [4], the “kcat/KM caspase-3” value worked out at 830 M⁻¹ s⁻¹. The “kcat/KM caspase-7” value in experiment [5] stood at 70 M⁻¹ s⁻¹. Also, the “kcat/KM caspase-8” value in experiment [6] is 1 990 M^-1s^-1. The “kcat/KM caspase-9” value in experiment [7] is listed as 5 660 M^-1s^-1.
For [Cha]EHD, the “kcat/KM caspase-1” value in experiment [1] is 184 300 M^-1s^-1 and 113 800 M^-1s^-1. In experiment [2], the “kcat/KM caspase-4” value is 21 340 M^-1s^-1 and 25 050 M^-1s^-1. In addition, in experiment [3], the “kcat/KM caspase-5” value was 34 640 M^-1s^-1 and 48 140 M^-1s^-1. Further, the “kcat/KM caspase-3” value in experiment [4] is 6 390 M^-1s^-1 and 6 530 M^-1s^-1. The “kcat/KM caspase-7” value in experiment [5] is 370 M⁻¹ s⁻¹ and 380 M⁻¹ s⁻¹. In addition, in experiment [6], the “kcat/KM caspase-8” value is 28 040 M^-1s^-1 and 27 690 M^-1s^-1. In addition, the “kcat/KM caspase-9” value in experiment [7] was 8 770 M^-1s^-1 and 9 270 M^-1s^-1.
Consider [Cha]E[Tic]D, for which, in experiment [1], the “kcat/KM caspase-1” value is given as 159 100 M^-1s^-1. Also, the “kcat/KM caspase-4” value in experiment [2] was 37 900 M^-1s^-1. Besides, the “kcat/KM caspase-5” value in experiment [3] is listed as 28 860 M^-1s^-1. The “kcat/KM caspase-3” value in experiment [4] is 10 440 M^-1s^-1. Moreover, in experiment [5], the “kcat/KM caspase-7” value was found to be 950 M⁻¹ s⁻¹. The “kcat/KM caspase-8” value in experiment [6] is on record as 7 860 M^-1s^-1. Moreover, the “kcat/KM caspase-9” value in experiment [7] is recorded as 7 760 M^-1s^-1.
Take [Phe(2-Cl)]E[Tic]D: the “kcat/KM caspase-1” value in experiment [1] is 243 800 M^-1s^-1. For the same substance, the “kcat/KM caspase-4” value in experiment [2] is recorded as 15 180 M^-1s^-1. The “kcat/KM caspase-5” value in experiment [3] is 16 790 M^-1s^-1. Besides, in experiment [4], the “kcat/KM caspase-3” value is 75 860 M^-1s^-1. Further, the “kcat/KM caspase-7” value in experiment [5] is listed as 10 040 M^-1s^-1. Further, the “kcat/KM caspase-8” value in experiment [6] is on record as 13 980 M^-1s^-1. Besides, the “kcat/KM caspase-9” value in experiment [7] is listed as 5 410 M^-1s^-1.
For the substance [Tle]MHD, the “kcat/KM caspase-1” value in experiment [1] is 23 100 M^-1s^-1. Moreover, in experiment [2], the “kcat/KM caspase-4” value is listed as 2 020 M^-1s^-1. In addition, in experiment [3], the “kcat/KM caspase-5” value is 5 120 M^-1s^-1. In addition, in experiment [4], the “kcat/KM caspase-3” value was 20 740 M^-1s^-1. Besides, the “kcat/KM caspase-7” value in experiment [5] worked out at 280 M⁻¹ s⁻¹. Moreover, the “kcat/KM caspase-8” value in experiment [6] is listed as 14 800 M^-1s^-1. In addition, the “kcat/KM caspase-9” value in experiment [7] was 8 360 M^-1s^-1.
On to [Tle][Bip]HD, for which the “kcat/KM caspase-1” value in experiment [1] is on record as 10 900 M^-1s^-1. The “kcat/KM caspase-4” value in experiment [2] is 2 820 M^-1s^-1. Besides, in experiment [3], the “kcat/KM caspase-5” value is on record as 5 280 M^-1s^-1. In addition, the “kcat/KM caspase-3” value in experiment [4] was 16 920 M^-1s^-1. Further, the “kcat/KM caspase-7” value in experiment [5] came out at 160 M⁻¹ s⁻¹. The “kcat/KM caspase-8” value in experiment [6] is 11 700 M^-1s^-1. Further, in experiment [7], the “kcat/KM caspase-9” value is recorded as 8 430 M^-1s^-1.
Consider [Tle][Phe(2-Cl)]HD, for which, in experiment [1], the “kcat/KM caspase-1” value is 31 900 M^-1s^-1. Besides, the “kcat/KM caspase-4” value in experiment [2] is given as 4 030 M^-1s^-1. Further, the “kcat/KM caspase-5” value in experiment [3] is 6 990 M^-1s^-1. In experiment [4], the “kcat/KM caspase-3” value was 26 070 M^-1s^-1. In experiment [5], the “kcat/KM caspase-7” value was found to be 350 M⁻¹ s⁻¹. In addition, in experiment [6], the “kcat/KM caspase-8” value was 6 220 M^-1s^-1. Besides, in experiment [7], the “kcat/KM caspase-9” value is given as 8 070 M^-1s^-1.
Regarding [Tle][Phe(4-Cl)]HD, in experiment [1], the “kcat/KM caspase-1” value is reported as 13 300 M^-1s^-1. Also, in experiment [2], the “kcat/KM caspase-4” value was 2 500 M^-1s^-1. Further, the “kcat/KM caspase-5” value in experiment [3] is listed as 7 360 M^-1s^-1. Also, the “kcat/KM caspase-3” value in experiment [4] is 21 330 M^-1s^-1. Moreover, the “kcat/KM caspase-7” value in experiment [5] is 160 M⁻¹ s⁻¹. Besides, the “kcat/KM caspase-8” value in experiment [6] is given as 10 600 M^-1s^-1. Moreover, the “kcat/KM caspase-9” value in experiment [7] is on record as 9 100 M^-1s^-1.
As to [Tle][Phg]HD, in experiment [1], the “kcat/KM caspase-1” value is 4 300 M^-1s^-1. The “kcat/KM caspase-4” value in experiment [2] stood at 320 M⁻¹ s⁻¹. For the same substance, in experiment [3], the “kcat/KM caspase-5” value was determined as 490 M⁻¹ s⁻¹. Moreover, in experiment [4], the “kcat/KM caspase-3” value was 6 710 M^-1s^-1. Moreover, the “kcat/KM caspase-7” value in experiment [5] was 40 M⁻¹ s⁻¹. Besides, in experiment [6], the “kcat/KM caspase-8” value is recorded as 2 030 M^-1s^-1. In experiment [7], the “kcat/KM caspase-9” value is 9 870 M^-1s^-1.

The record behind these values is article doi:10.1101/2025.02.11.637513v1 (bioRxiv, 2025).
